Columns and labels:
CHO cell culture = conditions: 3.6 g/l of monosaccharides; cited from earlier work
HEK293 cells = test: Disaccharides to support growth of HEK293 cells in PFCDM; format: cell-based; conditions: 10 g/l sugar, seeding 1.0×10^6 cells/ml, 22 days
Excerpt: (§1) In (A) CHO-K1 cells were cultivated in a serum-free protein-free cell culture medium, HyQ PF-CHO, with 3.6 g/l of different sugars (maltose, sucrose, lactose, trehalose or glucose) as carbohydrate source. The viable cell densities (lined markers) and culture viabilities (marker only) of these cultures at the beginning and end of each passage over a period of 74 days were plotted. Cultures with sucrose, lactose or trehalose were terminated on Day 31 due to the decreased culture viabilities and reduced viable cell densities. The experiment was repeated with a seeding cell density of 1.0×10^6 cells/ml to obtain similar results. In (B) CHO-DG44 cells were cultivated with a seeding cell density of 1.0×10^6 cells/ml in a serum-free protein-free cell culture medium, HyQ PF-CHO, with 10 g/l of different sugars (maltose, sucrose, lactose, trehalose or glucose) as carbohydrate source. The viable cell densities (lined markers) and cell viabilities (marker only) of these cultures at the beginning and end of each passage over a period of 22 days were plotted. In (C) HEK293 cells were cultivated with a seeding cell density of 1.0×10^6 cells/ml in a protein-free chemically defined cell culture medium, PFCDM, with 10 g/l of different sugars (maltose, sucrose, lactose, trehalose or glucose) as carbohydrate source. The viable cell densities (lined markers) and cell viabilities (marker only) of these cultures at the beginning and end of each passage over a period of 22 days were plotted. Cultures with sucrose, lactose or trehalose were terminated on Day 14 due to the decreased culture viabilities and reduced viable cell densities.

CHO-K1 cells = test: Adaptation of CHO-K1 cells into HyQ PF-CHO media with different disaccharides; format: cell-based, Chinese Hamster; conditions: 3.6 g/l sugar, seeding 0.3×10^6 cells/ml, 74 days
Method: Viable cell density and culture viability were determined by Trypan blue dye exclusion method using Vi-Cell XR Cell Viability Analyzer (Beckman Coulter, Brea, CA) according to manufacturer's instructions. For biochemical and other cell culture parameter analyses, 1 ml of culture sample was centrifuged at 8000 g for 10 minutes to obtain clarified supernatant. […] At each passage during the adaptation process, viable cell density and culture viability before passage and after inoculation into fresh media were determined. […] Osmolality of these culture media were determined to be between 308 and 324 mOsm/kg, well within the range for optimal mammalian cell culture. The viable cell densities and culture viabilities of these cultures at the beginning and end of each passage over a period of 74 days are shown in FIG. 1. […] However, culture viabilities and viable cell densities of the maltose culture started to pick up on Day 14. Proliferation of the cells in maltose culture then maintained over the period of the time studied, while those in the other disaccharides were terminated on Day 31 due to the lack of cell growth and depressed culture viabilities.

CHO-DG44 cells = test: Disaccharides to support growth of CHO-DG44 cells in HyQ PF-CHO; format: cell-based, Chinese Hamster; conditions: 10 g/l sugar, 22 days
Excerpt: as §1
To determine whether the same approach can be applied on other CHO cell lines, the use of disaccharides to support the growth of CHO-DG44 cells was evaluated. These cells were cultivated with 10 g/l of maltose, sucrose, lactose, trehalose or glucose as energy source in a serum-free protein-free cell culture medium HyQ PF-CHO. The viable cell densities and culture viabilities of these cultures at the beginning and end of each passage over a period of 22 days are shown in FIG. 1B.

Structure (SMILES) | specific consumption rate (CHO cell culture) [ng/cell/day] | proliferation in serum-free culture medium with the sugar as sugar source (HEK293 cells) | proliferation in serum-free protein-free culture medium with the sugar as sugar source (CHO-K1 cells) | proliferation in serum-free protein-free culture medium with the sugar as sugar source (CHO-DG44 cells)
O=C(CO)[C@@H](O)[C@H](O)[C@H](O)CO [fructose] | 0.21 |  |  | 
O=C[C@H](O)[C@@H](O)[C@@H](O)[C@H](O)CO [galactose] | 0.21 |  |  | 
OC[C@H]1O[C@@H](O[C@H]2[C@H](O)[C@@H](O)C(O)O[C@@H]2CO)[C@H](O)[C@@H](O)[C@H]1O (some centres unmarked) [lactose] |  | not | not | not
OC[C@H]1O[C@@](CO)(O[C@H]2O[C@H](CO)[C@@H](O)[C@H](O)[C@H]2O)[C@@H](O)[C@@H]1O [sucrose] |  | not | not | not
OC[C@H]1O[C@H](O[C@H]2O[C@H](CO)[C@@H](O)[C@H](O)[C@H]2O)[C@H](O)[C@@H](O)[C@@H]1O [trehalose] |  | not | not | not

Source: patent US12454675B2, “Method of increasing protein yield in mammalian cells in serum-free culture medium” (AGENCY FOR SCIENCE, TECHNOLOGY AND RESEARCH, priority 2016, dated 2025)
